We go through 60 compounds from patent US8163753B2, “2,3-dihydro-6-nitroimidazo (2,1-b) oxazole compounds for the treatment of tuberculosis” (priority 2003, dated 2012).

For orientation: melting point means the temperature of the solid-liquid transition. `O=[N+]([O-])c1cn2c(n1)OC(COc1ccc(N3CCC(COCc4ccc(C(F)(F)F)cc4)CC3)cc1)C2` (stereo not drawn) registered a melting point of 140.2 to 141.7 °C.

In turn, `CC1(Cc2ccc(N3CCC(Oc4ccc(OC(F)(F)F)cc4)CC3)cc2)Cn2cc([N+](=O)[O-])nc2O1` (stereo not drawn) showed a melting point of 184.9 to 186.8 °C.

Turning to `C[C@]1(COc2ccc(N3CCC(COC(=O)Nc4ccc(OC(F)(F)F)cc4)CC3)cc2)Cn2cc([N+](=O)[O-])nc2O1`, the melting point is 211.6 to 212 °C (dec.).

Consider `C[C@]1(COc2ccc3c(c2)nc(N2CCN(Cc4ccc(OC(F)(F)F)cc4)CC2)n3Cc2ccccc2)Cn2cc([N+](=O)[O-])nc2O1`, for which the melting point was 101.3 to 104 °C.

Turning to `C[C@]1(COc2ccc(CN3CCC(Cc4ccc(OC(F)(F)F)cc4)CC3)cc2)Cn2cc([N+](=O)[O-])nc2O1`, the melting point lay in the range of 172.5 to 174.1 °C.

With `CN(C(=O)OC(C)(C)C)C1CCN(Cc2ccc(OCC3(C)Cn4cc([N+](=O)[O-])nc4O3)cc2)CC1` (stereo not drawn), the melting point fell in the range of 138.5 to 141.9 °C.

Turning to `CC(C)(C)OC(=O)N1CCCN(c2ccc(-c3ccc(OC[C@@]4(C)Cn5cc([N+](=O)[O-])nc5O4)cc3)cc2)CC1`, the melting point was in the range of 213.8 to 215.7 °C.

`CC(C)(C)OC(=O)N1CCCN(c2ccc(-c3ccc(OC[C@H]4Cn5cc([N+](=O)[O-])nc5O4)cc3)cc2)CC1` gave a melting point of 235.5 to 237.5 °C.

The compound `C[C@]1(COc2ccc(C(=O)NCC(=O)N3CCC(Oc4ccc(OC(F)(F)F)cc4)CC3)cc2)Cn2cc([N+](=O)[O-])nc2O1` showed a melting point of 186.9 to 189.5 °C.

Compound `CC1(COc2ccc3nc(N4CCN(Cc5ccc(OC(F)(F)F)cc5)CC4)sc3c2)Cn2cc([N+](=O)[O-])nc2O1` (stereo not drawn) yielded a melting point of 172.6 to 174.6 °C.

`CC1(COc2ccc(N3CCC(COc4ccc(Cl)cc4)CC3)cc2)Cn2cc([N+](=O)[O-])nc2O1` (stereo not drawn) showed a melting point of 190 to 190.4 °C.

The compound `O=[N+]([O-])c1cn2c(n1)OC(COc1ccc(N3CCC(COc4ccc(Cl)cc4)CC3)cc1)C2` (stereo not drawn) gave a melting point of 191.2 to 192.5 °C.

`O=[N+]([O-])c1cn2c(n1)OC(COc1ccc(N3CCC(Cc4ccc(OC(F)(F)F)cc4)CC3)cc1)C2` (stereo not drawn) showed a melting point of 132.7 to 135 °C.

On to `CC1(COc2ccc(N3CCN(CC=Cc4ccc(OC(F)(F)F)cc4)CC3)cc2)Cn2cc([N+](=O)[O-])nc2O1` (stereo not drawn), for which the melting point lay within 181.1 to 182.2 °C.

Regarding `C[C@]1(COc2ccc(N3CCC(CO)CC3)cc2)Cn2cc([N+](=O)[O-])nc2O1`, the melting point was in the range of 171 to 173.8 °C.

`C[C@]1(COc2ccc(-c3nc(-c4ccc(Cl)cc4)co3)cc2)Cn2cc([N+](=O)[O-])nc2O1` had a melting point of 248.8 to 251.5 °C.

As for `C[C@]1(COc2ccc3nc(N4CCC(Cc5ccc(OC(F)(F)F)cc5)CC4)ccc3c2)Cn2cc([N+](=O)[O-])nc2O1`, the melting point is 184.9 to 185.9 °C.

Take `C[C@]1(COc2ccc3nc(N4CCC(=Cc5ccc(OC(F)(F)F)cc5)CC4)ccc3c2)Cn2cc([N+](=O)[O-])nc2O1`: the melting point lay in the range of 193.9 to 195.9 °C.

Take `C[C@]1(COc2ccc3cc(N4CCC(Oc5ccc(OC(F)(F)F)cc5)CC4)ccc3c2)Cn2cc([N+](=O)[O-])nc2O1`: the melting point lay in the range of 204.8 to 207.9 °C.

Compound `C[C@]1(COc2ccc(N3CCC(OCc4ccc(C(F)(F)F)cc4)CC3)cc2)Cn2cc([N+](=O)[O-])nc2O1` showed a melting point of 217.4 to 219.7 °C.

Compound `C[C@]1(COc2ccc(N3CCC(Cc4ccc(Cl)cc4)CC3)cc2)Cn2cc([N+](=O)[O-])nc2O1` gave a melting point of 207.1 to 211.2 °C.

`C[C@]1(COc2ccc(N3CCC(OCC=Cc4ccc(OC(F)(F)F)cc4)CC3)cc2)Cn2cc([N+](=O)[O-])nc2O1` yielded a melting point of 213.7 to 217.4 °C.

The compound `O=[N+]([O-])c1cn2c(n1)O[C@@H](COc1ccc(N3CCC(OCc4ccc(OC(F)(F)F)cc4)CC3)cc1)C2` returned a melting point of 188.3 to 189.4 °C.

In turn, `C[C@]1(COc2ccc(N3CCC(CCc4ccc(OC(F)(F)F)cc4)CC3)cc2)Cn2cc([N+](=O)[O-])nc2O1` displayed a melting point of 239.4 to 241.3 °C.

As to `C[C@]1(COc2ccc(N3CCC(Oc4ccc(OC(F)(F)F)cc4)CC3)nc2)Cn2cc([N+](=O)[O-])nc2O1`, the melting point fell in the range of 185.9 to 186.7 °C.

Consider `O=[N+]([O-])c1cn2c(n1)O[C@@H](COc1ccc(N3CCC(Cc4ccc(OC(F)(F)F)cc4)CC3)cc1)C2`, for which the melting point lay in the range of 160.5 to 164 °C.

`C[C@]1(COc2ccc(N3CCCN(c4ccc(OC(F)(F)F)cc4)CC3)cc2)Cn2cc([N+](=O)[O-])nc2O1` showed a melting point of 134 to 137.9 °C.

As to `CN(Cc1ccc(C(F)(F)F)cc1F)C1CCN(c2ccc(OC[C@@]3(C)Cn4cc([N+](=O)[O-])nc4O3)cc2)CC1`, the melting point lay in the range of 197.5 to 199.2 °C.

`CN(Cc1ccccc1C(F)(F)F)C1CCN(c2ccc(OC[C@@]3(C)Cn4cc([N+](=O)[O-])nc4O3)cc2)CC1` registered a melting point of 189.6 to 190.2 °C.

Consider `C[C@]1(COc2ccc(N3CCC(Cc4cccc(OC(F)(F)F)c4)CC3)cc2)Cn2cc([N+](=O)[O-])nc2O1`, for which the melting point is 187.4 to 189.8 °C.

In the case of `CN(Cc1cc2cc(Cl)ccc2o1)C1CCN(c2ccc(OC[C@@]3(C)Cn4cc([N+](=O)[O-])nc4O3)cc2)CC1`, the melting point is 207.4 to 210 °C.

In turn, `O=[N+]([O-])c1cn2c(n1)O[C@@H](COc1ccc(N3CCC(CCc4ccc(OC(F)(F)F)cc4)CC3)cc1)C2` gave a melting point of 208.9 to 211.7 °C.

Compound `CN(CC=Cc1ccc(OC(F)(F)F)cc1)C1CCN(c2ccc(OC[C@@]3(C)Cn4cc([N+](=O)[O-])nc4O3)cc2)CC1` gave a melting point of 213 to 214.9 °C.

As to `C[C@]1(COc2ccc(N3CCN(CC=Cc4ccc(Cl)c(Cl)c4)CC3)cc2)Cn2cc([N+](=O)[O-])nc2O1`, the melting point lay in the range of 204.7 to 206.4 °C.

Turning to `CN(CC1CCN(c2ccc(OC(F)(F)F)cc2)CC1)c1ccc(OC[C@@]2(C)Cn3cc([N+](=O)[O-])nc3O2)cc1`, the melting point was in the range of 172.5 to 175.2 °C.

As to `CN(c1ccc(OC[C@@]2(C)Cn3cc([N+](=O)[O-])nc3O2)cc1)C1CCN(c2ccc(OC(F)(F)F)cc2)CC1`, the melting point is 137.9 to 139.2 °C.

Turning to `C[C@]1(COc2ccc(C3CCN(Cc4csc(-c5ccc(C(F)(F)F)cc5)n4)CC3)cc2)Cn2cc([N+](=O)[O-])nc2O1`, the melting point fell in the range of 194.6 to 196.4 °C.

The compound `C[C@]1(COc2ccc(C3CCN(CC=Cc4ccc(C(F)(F)F)cc4)CC3)cc2)Cn2cc([N+](=O)[O-])nc2O1` gave a melting point of 185.9 to 187.1 °C.

Regarding `C[C@]1(COc2ccc(N3CCN(CC=Cc4ccc(C(F)(F)F)cc4)CC3)cc2)Cn2cc([N+](=O)[O-])nc2O1`, the melting point is 199.7 to 202 °C.

For `C[C@]1(COc2ccc(N3CCN(Cc4csc(-c5ccc(C(F)(F)F)cc5)n4)CC3)cc2)Cn2cc([N+](=O)[O-])nc2O1`, the melting point was 210 to 212.1 °C.

On to `C[C@]1(COc2ccc(N3CCC(COc4ccc(C(F)(F)F)cc4)CC3)cc2)Cn2cc([N+](=O)[O-])nc2O1`, for which the melting point was 223.2 to 225.2 °C (dec.).

Compound `C[C@]1(COc2ccc(N3CCC(COCc4ccc(C(F)(F)F)cc4)CC3)cc2)Cn2cc([N+](=O)[O-])nc2O1` returned a melting point of 172.3 to 172.9 °C.

Turning to `C[C@]1(COc2ccc(N3CCC(COc4ccc(CCl)cc4)CC3)cc2)Cn2cc([N+](=O)[O-])nc2O1`, the melting point lay within 140.4 to 141.7 °C.

`O=[N+]([O-])c1cn2c(n1)O[C@@H](COc1ccc(N3CCC(COc4ccc(C(F)(F)F)cc4)CC3)cc1)C2` gave a melting point of 175 to 180 °C.

Take `C[C@]1(COc2ccc(-c3ccc(N4CCN(Cc5ccc(C(F)(F)F)cc5)CC4)cc3)cc2)Cn2cc([N+](=O)[O-])nc2O1`: the melting point was 247.7 to 248.4 °C (dec.).

For the compound `CC1(COc2ccc(N3CCC(Cc4ccc(OC(F)(F)F)cc4)CC3)cc2)Cn2cc([N+](=O)[O-])nc2O1` (stereo not drawn), the melting point is 180.9 to 182.7 °C.

`C[C@]1(COc2ccc(N3CCC(CCOCc4ccc(OC(F)(F)F)cc4)CC3)cc2)Cn2cc([N+](=O)[O-])nc2O1` came in with a melting point of 204.8 to 206.7 °C.

`C[C@]1(COc2ccc(N3CCC(CCOCc4ccc(C(F)(F)F)cc4)CC3)cc2)Cn2cc([N+](=O)[O-])nc2O1` showed a melting point of 198 to 199.2 °C.

`C[C@]1(COc2ccc(N3CCN(Cc4ccc(N5CCC(Oc6ccc(OC(F)(F)F)cc6)CC5)cc4)CC3)cc2)Cn2cc([N+](=O)[O-])nc2O1` came in with a melting point of 198.2 to 201.4 °C.

Take `C[C@]1(COc2ccc(-c3ccc(N4CCN(Cc5ccc(Cl)c(Cl)c5)CC4)cc3)cc2)Cn2cc([N+](=O)[O-])nc2O1`: the melting point was 222.6 to 225.1 °C (dec.).

Take `C[C@]1(COc2ccc(N3CCC(Nc4ccc(Oc5ccc(OC(F)(F)F)cc5)cc4)CC3)cc2)Cn2cc([N+](=O)[O-])nc2O1`: the melting point is 198.6 to 201.1 °C (dec.).

The compound `CN(CCCOc1ccc(OC(F)(F)F)cc1)C1CCN(c2ccc(OC[C@@]3(C)Cn4cc([N+](=O)[O-])nc4O3)cc2)CC1` displayed a melting point of 167.4 to 170.2 °C.

`C[C@]1(COc2ccc(N3CCC(Nc4ccc(Cl)c(Cl)c4)CC3)cc2)Cn2cc([N+](=O)[O-])nc2O1`: the melting point is 146 to 147.4 °C.

As to `CN(CCOc1ccc(OC(F)(F)F)cc1)C1CCN(c2ccc(OC[C@@]3(C)Cn4cc([N+](=O)[O-])nc4O3)cc2)CC1`, the melting point was 185.7 to 187.7 °C.

`C[C@]1(COc2ccc(N3CCC(N4CCN(c5ccc(OC(F)(F)F)cc5)CC4)CC3)cc2)Cn2cc([N+](=O)[O-])nc2O1` came in with a melting point of 279 to 281 °C.

`C[C@]1(COc2ccc(N3CCC(Nc4cc(Cl)cc(Cl)c4)CC3)cc2)Cn2cc([N+](=O)[O-])nc2O1` yielded a melting point of 122 to 124 °C.

Compound `CN(c1ccc(Cl)cc1)C1CCN(C2CCN(c3ccc(OC[C@@]4(C)Cn5cc([N+](=O)[O-])nc5O4)cc3)CC2)CC1` came in with a melting point of 230.8 to 232 °C.

Compound `CN(c1ccc(OC(F)(F)F)cc1)C1CCN(C2CCN(c3ccc(OC[C@@]4(C)Cn5cc([N+](=O)[O-])nc5O4)cc3)CC2)CC1` yielded a melting point of 196 to 197 °C.

The compound `CCCc1ccc(NC2CCN(c3ccc(OC[C@@]4(C)Cn5cc([N+](=O)[O-])nc5O4)cc3)CC2)cc1` yielded a melting point of 222 to 223 °C.

Regarding `CCCc1ccc(N(C)C2CCN(c3ccc(OC[C@@]4(C)Cn5cc([N+](=O)[O-])nc5O4)cc3)CC2)cc1`, the melting point is 198 to 199 °C.
